Values joined by “and” are separate entries in the source; they are usually repeats but may differ in a detail not shown here. Identical values can stand only once. Marks after values point to notes of the source that are not given here.
How the values were obtained:
[1] = test system: E. faecalis EfΔbacA cells expressing BacAef K209A D106A D110A; assay: survival test; type: cell-based, Enterococcus faecalis; settings: 0.5 μM EntC, 30 min, 37 °C, p ≤ 0.0001, three experiments
[2] = molecular target: BacAec (Escherichia coli, UniProt P60932); settings: highest concentration tested 100 μM
Experimental: The reconstitution of BacA and PgpB in liposomes was achieved through adapted protocols previously described ([48]). Liposomes were prepared by rehydrating a lipid film of DOPC: DOPG: DOPE (3 mg: 0.75 mg: 1.25 mg) after 4 h of desiccation by adding 1 ml of buffer (20 mM HEPES, pH 7.5, 50 mM NaCl, 15% glycerol). […] The lipid suspension underwent 10 freeze-thaw cycles in liquid nitrogen and was extruded through a 100 nm polycarbonate membrane (Millipore). Protein reconstitution was performed by destabilizing the liposomes with 5.5 mM Triton X-100 for 15 min. The protein was added at a final concentration of 15 μg/ml and the mixture was incubated at 4 °C for 15 min.
The liposomes were used to measure the C55-PP phosphatase activity of BacA in a membrane environment as follows. For each kinetic assay, 5 μl of a reaction mixture containing 20 μM C15-PP, 20 μM [^14C]C5-PP, 180 μM C5-PP in 20 mM HEPES, pH 7.5, 50 mM NaCl, and 15% glycerol were mixed with 5 μl of protein-free liposomes (as a control) or BacA-containing liposomes. The mixture was then supplemented with UppS at a final concentration of 0.2 mg/ml to initiate the enzymatic synthesis of C55-PP. The EntC peptides were added at various concentrations from a water solution. […] Substrates and products were separated and quantified by thin-layer chromatography as previously described for C55-PP phosphatase assay in detergent.

[3] = molecular target: T1, BacAef (Enterococcus faecalis, UniProt A0ACD6TE02); type: biochemical; settings: DDM micelles; 20 mM Tris-HCl pH 7.4, 400 μM CaCl2, 150 mM NaCl, 0.1% DDM, 50 μM [14C]C55-PP, 10 min, 37 °C, TLC; EntC vs EntC1 p-value = 0.0007; read-out: IC50, BacAef C55-PP phosphatase activity
[4] = test system: E. faecalis cells; assay: growth prevention in liquid culture; type: cell-based, Enterococcus faecalis
[5] = test system: E. faecalis EfΔbacA cells expressing BacAef D106A D110A; assay: survival test; type: cell-based, Enterococcus faecalis; settings: 0.5 μM EntC, 30 min, 37 °C, three experiments
[6] = test system: E. faecalis EfΔbacA cells expressing BacAef K209A D106A; assay: survival test; type: cell-based, Enterococcus faecalis; settings: 0.5 μM EntC, 30 min, 37 °C, p ≤ 0.01, three experiments
[7] = molecular target: BacAef K209A (Enterococcus faecalis, UniProt A0ACD6TE02, K221A); assay: ITC, BacAef K209A; type: binding; settings: 20 °C
Experimental: (§1) The experiments were carried out at 20 °C.

[8] = test system: EfΔbacA cells carrying pIL:bacAef; assay: spot assay on bacA-complemented strain; type: cell-based, Enterococcus faecalis; settings: spot on BHI agar
[9] = molecular target: BacAef K209A D110A D106A; assay: ITC, BacAef K209A D110A D106A; type: binding, Enterococcus faecalis; settings: 20 °C, 400 μM into [BacAef K209A D110A D106A] 33 μM, pH 7.4, 0.1% DDM, at least triplicate
Experimental: as §1

[10] = test system: E. faecalis EfΔbacA cells expressing BacAef variants (K209A variants); assay: spot-on-lawn assay, D106/D110/K209 variants; type: cell-based, Enterococcus faecalis; settings: compared to wild-type BacAef
[11] = molecular target: BacAef R172A (Enterococcus faecalis, UniProt A0ACD6TE02, R184A); assay: ITC, BacAef R172A; type: binding; settings: 20 °C
Experimental: as §1

[12] = test system: E. faecalis EfΔbacA cells expressing BacAef D106A; assay: survival test; type: cell-based, Enterococcus faecalis; settings: 0.5 μM EntC, 30 min, 37 °C, three experiments
[13] = molecular target: T1, BacAef; assay: ITC, BacAef; type: binding; settings: ITC, 20 °C
Experimental: ITC experiments were performed with an ITC200 isothermal titration calorimeter from MicroCal (Malvern Panalytical, Malvern, UK). The experiments were carried out at 20 °C. The protein concentration in the microcalorimeter cell (0.2 ml) was 33 μM. Nineteen 2-μl injections of peptides at 400 μM were performed at intervals of 240 s while stirring at 500 rpm. To limit buffer mismatching effect between the cell and the syringe, and the heat-of-dilution effect for having glycerol in the protein solution, the latter were extensively dialyzed, prior to the ITC measurement, in a buffer containing 20 mM Tris-HCl pH 7.4, 200 mM NaCl, 0.1% DDM, to remove glycerol. Then, the dialysis buffer was used to dilute the EntC peptides to further limit buffer mismatching. The experimental data were fitted to theoretical titration curves with the software supplied by MicroCal (ORIGIN). This software uses the relationship between the heat generated by each injection and ΔH (enthalpy change in kcal/mol), Ka (the association binding constant in M^−1), n (the number of binding sites), total protein concentration and free and total ligand concentrations.

Sequence of BacAec (P60932 whole entry): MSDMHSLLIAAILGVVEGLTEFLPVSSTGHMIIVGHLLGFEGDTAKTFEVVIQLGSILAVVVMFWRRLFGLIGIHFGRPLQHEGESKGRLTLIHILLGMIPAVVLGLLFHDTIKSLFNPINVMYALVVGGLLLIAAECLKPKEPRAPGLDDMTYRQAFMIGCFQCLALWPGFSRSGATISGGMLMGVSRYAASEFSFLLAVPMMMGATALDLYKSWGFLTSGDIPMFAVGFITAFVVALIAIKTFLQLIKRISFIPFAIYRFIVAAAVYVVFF

## Enterocin C [EntC]
[1]
  % of survival: 54% and 54 ± 11 ^d %
[2]
  inhibition of BacAec in liposomes: no inhibitory effect
[3]
  IC50: 400 ± 100 nM
[4]; BHI
  concentration required to prevent the growth of E. faecalis cells: 100 nM
[4]; M17
  concentration required to prevent the growth of E. faecalis cells: 50 nM
[4]; MRS
  concentration required to prevent the growth of E. faecalis cells: 2 nM
[5]
  % of survival: 4.0 ± 3.0%
[6]
  % of survival: 14 ± 4.0 ^c %
[7]; 400 μM into [BacAef K209A] 33 μM
  n: 0.46 ± 0.02
[7]; 400 μM into [BacAef K209A] 33 μM, pH 7.4, 0.1% DDM, at least triplicate
  Kd: 1840 ± 335 nM
[7]; into [BacAef K209A]
  -TΔS: 0.1 kcal/mol
  ΔH: -8.3 kcal/mol
[8]
  susceptibility of EfΔbacA strain with ectopic bacA: fully restored
[9]
  KD: No binding
[10]
  susceptibility of EfΔbacA expressing K209A variants: small reduction in susceptibility
[11]; 400 μM into [BacAef R172A] 33 μM
  n: 0.30 ± 0.03
[11]; 400 μM into [BacAef R172A] 33 μM, pH 7.4, 0.1% DDM, at least triplicate
  Kd: 1610 ± 650 nM
[11]; into [BacAef R172A]
  -TΔS: 3.6 kcal/mol
  ΔG: -7.8 kcal/mol
  ΔH: -11.4 kcal/mol
[12]
  % of survival: 1.6 ± 1.0%
[13]; into [BacAef] 33 μM
  -TΔS: 14.1 kcal/mol
  ΔG: -9.0 kcal/mol
  ΔH: -23.1 kcal/mol
[13]; peptides 400 μM into [BacAef] 33 μM, 20 mM Tris-HCl pH 7.4, 200 mM NaCl, 0.1% DDM, at least triplicate
  Kd: 196 ± 47 nM
[13]; peptides 400 μM into [BacAef] 33 μM, pH 7.4, 0.1% DDM, at least triplicate
  n: 0.90 ± 0.01
